Reference: patent US8921410B2, “Nicotinic acetylcholine receptor sub-type selective amides of diazabicycloalkanes” (Targacept, Inc., priority 2006, dated 2014)
Where two headings read alike, the source gives them in different places.

Columns and labels:
human α4β2 nAChR subtype = human α4β2 nAChR subtype (Homo sapiens (Human), UniProt P17787+P43681); assay: Radioligand ([3H]nicotine) binding at α4β2 nAChR, SH-EP1/human α4β2 clonal cell membranes; settings: read-out: Human α4β2 Ki
Experimental: Preparation of Membranes from SH-EP1/Human α4β2 Clonal Cells:
Cell pellets from 40 150 mm culture dishes were pooled, and homogenized by Polytron (Kinematica GmbH, Switzerland) in 20 milliliters of ice-cold preparative buffer. The homogenate was centrifuged at 48,000 g for 20 minutes at 4° C. The resulting pellet was re-suspended in 20 mL of ice-cold preparative buffer and stored at −20° C.
(§1) On the day of the assay, the frozen membranes were thawed and spun at 48,000×g for 20 min. The supernatant was decanted and discarded. The pellet was resuspended in Dulbecco's phosphate buffered saline (PBS, Life Technologies) pH 7.4 and homogenized with the Polytron for 6 seconds. Protein concentrations were determined using a Pierce BCA Protein Assay Kit, with bovine serum albumin as the standard (Pierce Chemical Company, Rockford, Ill.).
(§2) Tissue was rinsed 3 times in PBS, pH 7.4. Scintillation fluid was added to filters containing the washed tissue and allowed to equilibrate.
(§3) Data were expressed as disintegrations per minute (DPMs). Within each assay, each point had 2-3 replicates. The replicates for each point were averaged and plotted against the log of the drug concentration.

α7 nAChR subtype = α7 nAChR subtype (Rattus norvegicus (Rat), UniProt Q05941); assay: Radioligand ([3H]MLA) binding at α7 nAChR, rat hippocampus membranes
Experimental: Rats (female, Sprague-Dawley), weighing 150-250 g, were maintained on a 12 h light/dark cycle and were allowed free access to water and food supplied by PMI Nutrition International, Inc. Animals were anesthetized with 70% CO2, then decapitated. Brains were removed and placed on an ice-cold platform. […] The homogenate was centrifuged at 18,000×g for 20 min at 4° C. and the resulting pellet was re-suspended in 10 volumes of ice-cold water. After 60 min incubation on ice, a new pellet was collected by centrifugation at 18,000×g for 20 min at 4° C. The final pellet was re-suspended in 10 volumes of buffer and stored at −20° C.
The binding of [^3H]MLA was measured using a modification of the methods of Davies et al., Neuropharmacol. […] [^3H]MLA (Specific Activity=25-35 Ci/mmol) was obtained from Tocris. The binding of [^3H]MLA was determined using a 2 h incubation at 21° C. Incubations were conducted in 48-well micro-titre plates and contained about 200 μg of protein per well in a final incubation volume of 300 μL. The incubation buffer was PBS and the final concentration of [^3H]MLA was 5 nM. The binding reaction was terminated by filtration of the protein containing bound ligand onto glass fiber filters (GF/B, Brandel) using a Brandel Tissue Harvester at room temperature. […] Each filter was washed with PBS (3×1 mL) at room temperature. Non-specific binding was determined by inclusion of 50 μM non-radioactive MLA in selected wells.
The inhibition of [^3H]MLA binding by test compounds was determined by including seven different concentrations of the test compound in selected wells. Each concentration was replicated in triplicate. IC50 values were estimated as the concentration of compound that inhibited 50 percent of specific [^3H]MLA binding.

rat α4β2 nAChR subtype = rat α4β2 nAChR subtype (Rattus norvegicus (Rat), UniProt P09483+P12390); assay: Radioligand ([3H]nicotine) binding at α4β2 nAChR, rat cortex membranes
Experimental: Preparation of Membranes from Rat Cortex:
Rats (female, Sprague-Dawley), weighing 150-250 g, were maintained on a 12 h light/dark cycle and were allowed free access to water and food supplied by PMI Nutrition International, Inc. Animals were anesthetized with 70% CO2, and then decapitated. Brains were removed and placed on an ice-cold platform. […] The homogenate was centrifuged at 18,000×g for 20 min at 4° C. and the resulting pellet was re-suspended in 20 volumes of ice-cold water. After 60 min incubation on ice, a new pellet was collected by centrifugation at 18,000×g for 20 min at 4° C. The final pellet was re-suspended in 10 volumes of buffer and stored at −20° C.
as §1, §2, §3

[1] = [3H]nicotine 5 nM, SH-EP1/human α4β2 membranes
[2] = [3H]nicotine 5 nM, rat cortex membranes
[3] = [3H]MLA 5 nM, rat hippocampus membranes
[4] = did not bind sufficiently in HTS at α7 to warrant Ki determination

Sequence of α7 nAChR subtype (Q05941 23-502): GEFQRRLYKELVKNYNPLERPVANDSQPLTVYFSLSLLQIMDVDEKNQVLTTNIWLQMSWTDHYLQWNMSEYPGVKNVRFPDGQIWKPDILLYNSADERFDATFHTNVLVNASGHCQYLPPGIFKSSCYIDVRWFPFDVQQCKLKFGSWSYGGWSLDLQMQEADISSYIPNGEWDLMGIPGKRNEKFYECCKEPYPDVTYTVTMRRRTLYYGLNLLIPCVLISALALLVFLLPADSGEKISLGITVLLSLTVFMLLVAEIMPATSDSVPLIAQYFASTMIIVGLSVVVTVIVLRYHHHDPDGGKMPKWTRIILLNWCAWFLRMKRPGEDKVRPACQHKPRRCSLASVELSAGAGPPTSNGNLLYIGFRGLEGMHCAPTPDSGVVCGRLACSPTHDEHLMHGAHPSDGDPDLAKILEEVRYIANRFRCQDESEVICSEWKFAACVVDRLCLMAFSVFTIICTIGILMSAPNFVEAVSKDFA
Sequence of rat α4β2 nAChR subtype (P09483 31-630): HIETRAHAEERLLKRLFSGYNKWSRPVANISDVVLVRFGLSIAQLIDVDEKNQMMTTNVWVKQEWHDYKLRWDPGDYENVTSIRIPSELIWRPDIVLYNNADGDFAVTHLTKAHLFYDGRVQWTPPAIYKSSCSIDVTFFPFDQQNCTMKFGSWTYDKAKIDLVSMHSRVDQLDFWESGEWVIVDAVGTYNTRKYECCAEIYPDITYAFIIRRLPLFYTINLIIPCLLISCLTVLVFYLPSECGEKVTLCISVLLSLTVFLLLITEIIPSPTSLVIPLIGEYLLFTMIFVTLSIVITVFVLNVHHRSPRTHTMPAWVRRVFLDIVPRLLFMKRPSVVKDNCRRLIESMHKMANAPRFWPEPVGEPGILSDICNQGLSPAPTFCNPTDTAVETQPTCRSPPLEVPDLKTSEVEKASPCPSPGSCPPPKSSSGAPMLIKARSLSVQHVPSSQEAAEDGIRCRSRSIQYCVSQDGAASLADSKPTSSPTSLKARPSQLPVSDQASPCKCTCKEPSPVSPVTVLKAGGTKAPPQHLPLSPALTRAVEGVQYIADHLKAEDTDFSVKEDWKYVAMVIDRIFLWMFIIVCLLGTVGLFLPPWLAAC
Sequence of rat α4β2 nAChR subtype (P12390 25-500): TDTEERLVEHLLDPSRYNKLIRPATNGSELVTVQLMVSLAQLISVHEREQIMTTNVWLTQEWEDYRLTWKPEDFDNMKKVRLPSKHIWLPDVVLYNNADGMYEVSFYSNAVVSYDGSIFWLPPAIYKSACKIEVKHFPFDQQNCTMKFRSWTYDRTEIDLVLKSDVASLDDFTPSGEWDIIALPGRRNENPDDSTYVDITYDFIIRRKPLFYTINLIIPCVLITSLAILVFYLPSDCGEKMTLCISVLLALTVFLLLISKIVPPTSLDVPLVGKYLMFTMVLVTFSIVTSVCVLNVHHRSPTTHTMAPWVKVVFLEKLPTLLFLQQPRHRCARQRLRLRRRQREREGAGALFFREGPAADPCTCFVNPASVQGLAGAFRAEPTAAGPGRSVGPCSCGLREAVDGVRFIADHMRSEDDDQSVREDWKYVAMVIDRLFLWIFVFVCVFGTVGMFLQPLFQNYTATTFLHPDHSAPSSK
Sequence of human α4β2 nAChR subtype (P43681 29-627): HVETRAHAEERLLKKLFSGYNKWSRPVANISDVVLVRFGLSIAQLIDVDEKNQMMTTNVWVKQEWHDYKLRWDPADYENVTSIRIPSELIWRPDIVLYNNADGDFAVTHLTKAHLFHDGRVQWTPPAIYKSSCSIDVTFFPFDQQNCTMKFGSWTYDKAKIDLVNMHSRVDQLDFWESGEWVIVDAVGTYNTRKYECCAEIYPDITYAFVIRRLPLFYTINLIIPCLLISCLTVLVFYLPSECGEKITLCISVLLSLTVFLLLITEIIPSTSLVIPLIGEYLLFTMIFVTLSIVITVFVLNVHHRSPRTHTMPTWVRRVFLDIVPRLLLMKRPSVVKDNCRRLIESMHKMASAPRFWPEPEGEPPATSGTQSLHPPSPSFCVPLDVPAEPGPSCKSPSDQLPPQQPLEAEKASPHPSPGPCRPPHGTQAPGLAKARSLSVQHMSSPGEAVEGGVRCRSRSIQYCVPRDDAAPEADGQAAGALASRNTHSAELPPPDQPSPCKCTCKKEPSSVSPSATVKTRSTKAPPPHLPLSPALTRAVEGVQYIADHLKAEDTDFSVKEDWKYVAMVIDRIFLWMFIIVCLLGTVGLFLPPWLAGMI
Sequence of human α4β2 nAChR subtype (P17787 26-502): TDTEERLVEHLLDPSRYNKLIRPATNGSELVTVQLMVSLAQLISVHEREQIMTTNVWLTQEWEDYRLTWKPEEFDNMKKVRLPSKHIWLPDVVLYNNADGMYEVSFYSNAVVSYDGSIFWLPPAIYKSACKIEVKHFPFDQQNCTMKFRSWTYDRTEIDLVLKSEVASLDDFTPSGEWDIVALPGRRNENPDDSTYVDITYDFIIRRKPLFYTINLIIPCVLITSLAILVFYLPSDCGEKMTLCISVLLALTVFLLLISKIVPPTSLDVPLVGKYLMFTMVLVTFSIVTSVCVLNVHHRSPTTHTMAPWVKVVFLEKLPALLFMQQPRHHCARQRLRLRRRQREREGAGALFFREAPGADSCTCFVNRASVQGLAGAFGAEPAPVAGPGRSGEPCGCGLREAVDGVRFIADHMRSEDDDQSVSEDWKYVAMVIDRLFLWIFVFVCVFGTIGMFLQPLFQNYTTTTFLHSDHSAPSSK

Compound	Ki (human α4β2 nAChR subtype; [1]) [nM]	Ki (α7 nAChR subtype) [nM]	Ki (rat α4β2 nAChR subtype; [2]) [nM]	Ki (α7 nAChR subtype; [3]) [nM]	Ki (rat α4β2 nAChR subtype) [nM]	α7 high through-put screening outcome (Ki not determined) (α7 nAChR subtype; [4])	Ki (human α4β2 nAChR subtype) [nM]	α7 high through-put screening outcome (Ki not determined) (α7 nAChR subtype)
O=C(c1ccc(Br)o1)N1CC2CNCC2C1 (centres unmarked)	73	12000	54	–	–	–	–	–
O=C(c1ccoc1)N1CC2CNCC2C1 (centres unmarked)	220	–	–	3100	53	–	–	–
O=C(c1ccc([N+](=O)[O-])o1)N1CC2CNCC2C1 (centres unmarked)	31	–	35	2900	–	–	–	–
COc1cc(C(=O)N2CC3CNCC3C2)on1 (centres unmarked)	19	–	19	3500	–	–	–	–
O=C(c1occc1Br)N1CC2CNCC2C1 (centres unmarked)	1.5	–	–	12000	1.5	–	–	–
Cc1ccoc1C(=O)N1CC2CNCC2C1 (centres unmarked)	54	–	44	25000	–	–	–	–
O=C(c1ccc(C#Cc2ccccc2)o1)N1CC2CNCC2C1 (centres unmarked)	43	–	230	3200	–	–	–	–
Cc1ccc(C(=O)N2CC3CNCC3C2)o1 (centres unmarked)	28	23000	–	–	130	–	–	–
O=C(c1cc(Br)no1)N1CC2CNCC2C1 (centres unmarked)	44	–	17	–	–	ND; failed HTS	–	–
O=C(c1cc(Br)co1)N1CC2CNCC2C1 (centres unmarked)	18	–	29	–	–	ND; failed HTS	–	–
COc1coc(C(=O)N2CC3CNCC3C2)c1OC (centres unmarked)	40	–	140	–	–	ND; failed HTS	–	–
O=C(c1cc(-c2cc(F)cc(F)c2)co1)N1CC2CNCC2C1 (centres unmarked)	24	–	54	–	–	ND; failed HTS	–	–
O=C(c1cc(-c2ccccc2)co1)N1CC2CNCC2C1 (centres unmarked)	86	–	260	12000	–	–	–	–
O=C(c1cc(-c2ccoc2)co1)N1CC2CNCC2C1 (centres unmarked)	95	–	110	–	–	ND; failed HTS	–	–
Cc1cc(C(=O)N2CC3CNCC3C2)no1 (centres unmarked)	84	–	150	–	–	ND; failed HTS	–	–
Cc1ncoc1C(=O)N1CC2CNCC2C1 (centres unmarked)	9.2	–	15	210000	–	–	–	–
Cc1oc(C(=O)N2CC3CNCC3C2)cc1Br (centres unmarked)	22	–	–	–	20	ND; failed HTS	–	–
O=C(c1cc(Br)c(Br)o1)N1CC2CNCC2C1 (centres unmarked)	–	–	–	–	–	ND; failed HTS	–	–
N#Cc1ccoc1C(=O)N1CC2CNCC2C1 (centres unmarked)	–	–	–	–	25	–	14	ND; failed HTS
Cc1cc(F)c(C(=O)N2CC3CNCC3C2)o1 (centres unmarked)	14	–	–	–	65	ND; failed HTS	–	–
O=C(c1ccc(Br)o1)N1CC2CNCC(C2)C1	51	–	–	–	41	ND; failed HTS	–	–
COc1cc(C(=O)N2CC3CNCC(C3)C2)on1	180	–	–	–	33	ND; failed HTS	–	–
Cc1cc(C(=O)N2CC3CNCC(C3)C2)no1	–	–	–	–	68	ND; failed HTS	96	–
Cc1cc(C(=O)N2CC3CNCC(C3)C2)on1	47	–	–	–	29	ND; failed HTS	–	–
O=C(c1cc(C2CC2)on1)N1CC2CNCC(C2)C1	83	–	–	–	25	ND; failed HTS	–	–
O=C(c1occc1Cl)N1CC2CNCC(C2)C1	29	–	–	–	96	ND; failed HTS	–	–
O=C(c1cc(Br)c(Br)o1)N1CC2CNCC(C2)C1	–	–	–	–	–	ND; failed HTS	–	–
O=C(c1cc(Cl)co1)N1CC2CNCC(C2)C1	5.2	–	–	–	13	ND; failed HTS	–	–
Cc1oc(C(=O)N2CC3CNCC(C3)C2)cc1Br	5.2	–	–	–	7.5	ND; failed HTS	–	–
N#Cc1ccc(C(=O)N2CC3CNCC(C3)C2)o1	–	–	–	–	35	ND; failed HTS	8.7	–
